Several values for one entry are separate records, joined by “and”; a condition that tells them apart may be missing. Identical values can stand only once. Where only a bound is given, the exact number is not on record here.

For the assay, the system named is Phosphorylation of STAT6 in human A549 cells. Description: Phosphorylated STAT6 (pSTAT6) flow cytometry assay in human A549 cells. The format is cell-based. As to conditions: read-out: STAT6 IL4 pSTAT6 assay in A549 cells: Average IC50. The source says: Example 3. Phosphorylated STAT6 (pSTAT6) Flow Cytometry Assay in Human A549 Cells
Phosphorylation of STAT6 in human A549 cells was quantitatively measured using flow cytometry technology.
The term IC50 denotes the concentration that inhibits the measured activity by half. For the compound `C#Cc1cc(C2=CCCN(C(=O)CCn3ccnn3)C2)cc2cc(C(=O)N(C)C)oc12` [Example I-373, 5-(1-(3-(1H-1,2,3-triazol-1-yl)propanoyl)-1,2,5,6-tetrahydropyridin-3-yl)-7-ethynyl-N,N-dimethylbenzofuran-2-carboxamide], the half-inhibitory concentration (IC50) is 100 to 1000 nM.
Consider `COc1cccnc1N1CCN(C(=O)c2cc3c(-c4cccnc4OC)cc(C4=CCCN(C(=O)CCn5ccnn5)C4)c(F)c3[nH]2)CC1` [Example I-410], for which the half-maximal inhibitory concentration (IC50) is greater than 100000 nM.
For the compound `COc1cc(F)cnc1N1CCN(C(=O)c2cc3c(-c4ccc(C5(O)CCC5)cc4)cc(C4=CCCN(C(=O)CCn5ccnn5)C4)c(F)c3[nH]2)CC1` [Example I-1146], the concentration for half-maximal inhibition (IC50) is less than 100 nM.
The result for `CCc1ccncc1-c1cc(C2=CCCN(C(=O)CCn3ccnn3)C2)c(F)c2[nH]c(C(=O)N3CCN(c4ccccc4OC)CC3)cc12` [Example I-471] reads less than 100 nM; that for `COc1ccccc1-c1cc(C2=CCCN(C(=O)CCn3ccnn3)C2)c(F)c2[nH]c(CN3CCN(c4ncccc4OC)CC3=O)cc12` [Example I-1171], 100 to 1000 nM.
The result for `COc1ccccc1-c1cc(C2=CCCN(C(=O)CCn3ccnn3)C2)c(F)c2sc(C(=O)N3CCN(c4ncccc4OC)CC3)cc12` [Example I-346] reads less than 100 nM.
The result for `COc1ccccc1-c1cc(C2=CCCN(C(=O)CCn3ccnn3)C2)c(F)c2[nH]c(C(=O)N3CCN(c4ncccc4OC4CC4)CC3)cc12` [Example I-336] reads less than 100 nM; that for `COCCCOc1ccc(-c2cc(C3=CCCN(C(=O)CCn4ccnn4)C3)c(F)c3[nH]c(C(=O)N4CCN(c5ncc(F)cc5OC)CC4)cc23)cc1` [Example I-1112], less than 100 nM.
Take `CN(C)C(=O)c1cc2ccc(C3=CCCN(C(=O)CCc4ccno4)C3)cc2[nH]1` [Example I-829]: the IC50 lay within 100 to 1000 nM.
As to `COC(=O)C1CN(C(=O)c2cc3c(-c4ccccc4OC)cc(C4=CCCN(C(=O)CCn5ccnn5)C4)c(F)c3[nH]2)CC1C` (centres unmarked) [Example I-998], the IC50 was less than 100 nM.
The result for `COc1cc(F)cnc1N1CCN(C(=O)c2cc3c(C4=CCN(C(C)=O)CC4)cc(C4=CCCN(C(=O)CCn5ccnn5)C4)c(F)c3[nH]2)CC1` [Example I-657] reads less than 100 nM; that for `COc1cccnc1N1CCN(C(=O)c2cc3c(-n4ccc5ccccc54)cc(C4=CCCN(C(=O)CCn5ccnn5)C4)c(F)c3[nH]2)CC1` [Example I-578], less than 100 nM.
For `CNc1ccc(-c2cc(C3=CCCN(C(=O)C4Cc5ccccc5CN4C=O)C3)cc3[nH]c(C(=O)N(C)C)cc23)cc1` (centres unmarked) [Example I-551], the half-maximal inhibitory concentration (IC50) is less than 100 nM.
The result for `COc1ccccc1-c1cc(C2=CCCN(C(=O)CCn3ccnn3)C2)c(F)c2[nH]c(C(=O)N3CCN(c4ncccc4OC(C)C)CC3)cc12` [Example I-332] reads less than 100 nM; that for `COc1cnc(N2CCN(C(=O)c3cc4c(-c5ccncc5OC)cc(C5=CCCN(C(=O)CCn6ccnn6)C5)c(F)c4[nH]3)CC2)c(OC)c1` [Example I-436], less than 100 nM; that for `COc1ccccc1N1CCN(C(=O)c2cc3c(-c4cccnc4OC)cc(C4=CCCN(C(=O)CCn5ccnn5)C4)c(F)c3[nH]2)CC1` [Example I-599], less than 100 nM.
For `CN(C)C(=O)c1cc2cc(C3=CCCN(C(=O)CCn4ccnn4)C3)cc(NCc3ccc(C(F)(F)F)cc3)c2o1` [Example I-877], the IC50 was 100 to 1000 nM.
As to `COc1cc(F)cnc1N1CCN(C(=O)c2cc3c(-c4ccncc4C(C)C)cc(C4=CCCN(C(=O)CCn5cccn5)C4)c(F)c3[nH]2)CC1` [Example I-685], the half-maximal inhibitory concentration (IC50) was less than 100 nM.
Regarding `CCn1c(N2CCN(C(=O)c3cc4c(-c5ccccc5OC)cc(C5=CCCN(C(=O)CCn6ccnn6)C5)c(F)c4[nH]3)CC2)nc2ccccc21` [Example I-942], the half-inhibitory concentration (IC50) is less than 100 nM.
The result for `COc1ccccc1N1CCN(C(=O)c2cc3c(-c4cnccc4OC(C)(C)C)cc(C4=CCCN(C(=O)CCn5ccnn5)C4)c(F)c3[nH]2)CC1` [Example I-404] reads greater than 100000 nM; that for `CCC1=C(c2cc(C3=CCCN(C(=O)CCn4ccnn4)C3)c(F)c3[nH]c(C(=O)N4CCN(c5ncc(F)cc5OC)CC4)cc23)CN(C)CC1` [Example I-730], less than 100 nM.
Take `COc1ccncc1-c1cc(C2=CCCN(C(C)=O)C2)c(F)c2[nH]c(C(=O)N3Cc4cnn(C)c4C3)cc12` [Example I-701]: the half-maximal inhibitory concentration (IC50) lay in the range of 10000 to 100000 nM.
Then `CN(C)C(=O)c1cc2cc(C3=CCCN(C(=O)CCn4ccnn4)C3)cc(-c3ccc(C(F)(F)F)cc3O)c2o1` [Example I-1073], with less than 100 nM.
On to `CN(C)C(=O)c1cc2ccc(C3=CCCN(C(=O)CCn4ccnn4)C3)cc2s1` [Example I-816], for which the IC50 lay within 100 to 1000 nM.
Regarding `COc1ccccc1-c1cc(C2=CCCN(C(=O)CCn3ccnn3)C2)cc2[nH]c(C(=O)N(C)C)cc12` [Example I-1054], the IC50 was less than 100 nM.
The result for `CN(C)C(=O)c1cc2cc(C3=CCCN(C(=O)CCn4ccnn4)C3)cc(NC[C@@H]3CCC(=O)N3C)c2o1` [Example I-896] reads 100 to 1000 nM.
Then `CCc1nc(C)ccc1-c1cc(C(=O)N2CCN(c3ncc(F)cc3OC)CC2)cc2cc(C3=CCCN(C(=O)CC(=O)O)C3)n(CC)c12` [Example I-794], with less than 100 nM.
`COc1ccccc1-c1cc(C2=CCCN(C(=O)CCn3ccnn3)C2)c(F)c2[nH]c(C(=O)N3CCN(c4cc(C)c5ncnn5c4)CC3)cc12` [Example I-909]: the IC50 was less than 100 nM.
For `COc1ccccc1-c1cc(C2=CCCN(C(=O)CCn3ccnn3)C2)c(F)c2[nH]c(C(=O)Nc3ccnn3C)cc12` [Example I-993], the IC50 fell in the range of 100 to 1000 nM.
`CNc1ccc(-c2cc(C3=CCCN(C(=O)CCn4ccnn4)C3)cc3[nH]c(C(=O)N(C)C)cc23)c(OC)c1` [Example I-1051]: the IC50 is greater than 100000 nM.
For `COc1ccccc1C(=O)N1CCN(C(=O)c2cc3c(-c4ccccc4OC)cc(C4=CCCN(C(=O)CCn5ccnn5)C4)c(F)c3[nH]2)CC1` [Example I-991], the 50% inhibitory concentration (IC50) is less than 100 nM.
The result for `COc1cc(F)cnc1N1CCN(C(=O)c2cc3c(-c4ccc(F)c(C)c4)cc(C4=CCCN(C(=O)CCn5ccnn5)C4)c(F)c3[nH]2)CC1` [Example I-676] reads 100 to 1000 nM; that for `CCOc1cc(-c2cc(C3=CCCN(C(=O)CCn4ccnn4)C3)c(F)c3[nH]c(C(=O)N4CCN(c5ncc(F)cc5OC)CC4)cc23)cc(F)c1F` [Example I-642], 100 to 1000 nM.
Then `COc1ccccc1-c1cc(C2=CCCN(C(=O)CCn3ccnn3)C2)c(F)c2[nH]c(C(=O)N3CCN(c4ncccc4OC(F)(F)F)CC3)cc12` [Example I-331, 1-(5-(7-fluoro-4-(2-methoxyphenyl)-2-(4-(3-(trifluoromethoxy)pyridin-2-yl)piperazine-1-carbonyl)-1H-indol-6-yl)-3,6-dihydropyridin-1(2H)-yl)-3-(1H-1,2,3-triazol-1-yl)propan-1-one], with less than 100 nM.
The result for `COc1ccccc1-c1cc(C2=CCCN(C(=O)CCn3ccnn3)C2)c(F)c2[nH]c(C(=O)N3CCN(c4ccsc4C#N)CC3)cc12` [Example I-776] reads less than 100 nM; that for `CCc1ccc(-c2cc(C(=O)N3Cc4cnn(CC)c4C3)cc3cc(C4=CCCN(C(=O)CC(=O)O)C4)n(CC(C)C)c23)c(C)n1` [Example I-801], greater than 100000 nM.
With `COc1ccccc1-c1cc(C2=CCCN(C(=O)CCn3ccnn3)C2)c(F)c2[nH]c(C(=O)N3CCN(c4cccc(OC(F)F)n4)CC3)cc12` [Example I-927], the concentration for half-maximal inhibition (IC50) fell in the range of 100 to 1000 nM.
Then `COc1ccncc1-c1cc(C2=CCCN(C(=O)CCn3ccnn3)C2)c(F)c2[nH]c(C(=O)N3CCN(c4ncc(Cl)cc4OC)CC3)cc12` [Example I-458], with less than 100 nM.
With `COc1cc(F)cnc1N1CCN(C(=O)c2cc3c(-c4cnc5ccccc5c4OC)cc(C4=CCCN(C(=O)CCn5ccnn5)C4)c(F)c3[nH]2)CC1` [Example I-468], the 50% inhibitory concentration (IC50) is less than 100 nM.
Take `COc1cc(Cl)cnc1N1CCN(C(=O)c2cc3c(-c4cnc5ccccc5c4OC)cc(C4=CCCN(C(=O)CCn5ccnn5)C4)c(F)c3[nH]2)CC1` [Example I-1037]: the IC50 lay in the range of 100 to 1000 nM.
The result for `COc1ccccc1-c1cc(C2=CCCN(C(=O)CCn3ccnn3)C2)c(F)c2[nH]c(C(=O)N3CCc4n[nH]cc4C3)cc12` [Example I-851] reads less than 100 nM.
Turning to `COc1cc(F)cnc1N1CCN(C(=O)c2cc3c(Br)cc(C4=CCCN(C(=O)CCn5ccnn5)C4)c(F)c3[nH]2)CC1` [Example I-806, 1-(5-(4-bromo-7-fluoro-2-(4-(5-fluoro-3-methoxypyridin-2-yl)piperazine-1-carbonyl)-1H-indol-6-yl)-3,6-dihydropyridin-1(2H)-yl)-3-(1H-1,2,3-triazol-1-yl)propan-1-one], the half-inhibitory concentration (IC50) is 10000 to 100000 nM and 100 to 1000 nM.
On to `COc1cc(F)ccc1-c1cc(C2=CCCN(C(=O)CCn3ccnn3)C2)c(F)c2[nH]c(C(=O)N3CCN(c4ccccc4OC)CC3)cc12` [Example I-598], for which the half-maximal inhibitory concentration (IC50) was less than 100 nM.
In the case of `COc1ccccc1-c1cc(C2=CCCN(C(=O)CCn3ccnn3)C2)c(F)c2[nH]c(C(=O)N3CCN(c4ccc5ccccc5c4OC)CC3)cc12` [Example I-956], the IC50 lay in the range of 1000 to 10000 nM.
The result for `COc1ccccc1-c1cc(C2=CCCN(C(=O)CCn3ccnn3)C2)c(F)c2[nH]c(C(=O)N3CCC4(CC3)OCCO4)cc12` [Example I-1000] reads less than 100 nM; that for `COc1ccccc1-c1cc(C2=CCCN(C(=O)CCn3ccnn3)C2)c(F)c2[nH]c(C(=O)N3CCN(c4c(OC)cccc4OC)CC3)cc12` [Example I-350], less than 100 nM; that for `COc1ccccc1-c1cc(C2=CCCN(C(=O)CCn3ccnn3)C2)c(F)c2[nH]c(C(=O)N3CCN(c4cc5cc[nH]c5nc4C#N)CC3)cc12` [Example I-401], greater than 100000 nM.
Take `COc1cc(F)cnc1N1CCN(C(=O)c2cc(-c3cccnc3OC)c3c(c2)cc(C2=CCCN(C(=O)CCn4ccnn4)C2)n3CC2CC2)CC1` [Example I-726]: the IC50 was less than 100 nM.
The result for `CCn1nccc1-c1cc(C(=O)N2Cc3cnn(CC)c3C2)cc2cc(C3=CCCN(C(=O)CCn4ccnn4)C3)n(CC3CC3)c12` [Example I-544] reads less than 100 nM.
Then `CCc1ccc(-c2cc(C(=O)N3CCN(c4ncc(F)cc4OC)CC3)cc3cc(C4=CCCN(C(=O)C5CC5C(=O)O)C4)n(CC4CC4)c23)c(C)n1` (centres unmarked) [Example I-545], with less than 100 nM.

The values are drawn from US20250214977A1, “STAT6 INHIBITORS AND USES THEREOF” (Kymera Therapeutics, Inc., priority 2024, published 2025).
